Read-outs that look alike come from different tables or passages of the source.
Key:
Rodents = conditions: injected intracerebroventricularly (ICV); NPY, ob/ob, agouti, fasted feeding models; cited from earlier work
[1] = tested on: male volunteers / patients with psychogenic erectile dysfunction; conditions: cited from earlier work
cloned human MC4R = molecular target: T1, cloned human MC4R (Homo sapiens, UniProt P32245); experiment: Membrane binding assay: competitive inhibition of [125I]NDP-α-MSH binding; conditions: for inhibition at 10 µM: read-out: Displacement Rate (%) (at 10 μM); for IC50: read-out: MC4R IC50
T1 construct: made in house; host or cells: Hi5 insect cells (baculovirus infection); membrane preparation
T1 sequence (P32245 whole entry): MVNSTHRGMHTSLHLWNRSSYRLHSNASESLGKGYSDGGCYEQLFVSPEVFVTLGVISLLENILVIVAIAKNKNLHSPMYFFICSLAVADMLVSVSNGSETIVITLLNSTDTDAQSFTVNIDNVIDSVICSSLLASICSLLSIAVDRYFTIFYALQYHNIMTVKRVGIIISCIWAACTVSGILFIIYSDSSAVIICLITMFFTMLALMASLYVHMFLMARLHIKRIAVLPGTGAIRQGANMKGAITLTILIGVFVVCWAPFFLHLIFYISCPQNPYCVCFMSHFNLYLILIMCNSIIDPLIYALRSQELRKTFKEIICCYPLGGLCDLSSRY

[2] = intramuscular, 0.005-0.03 mg/kg, three normal male volunteers
[3] = subcutaneous, 0.025 mg/kg and 0.1 mg/kg, 10 patients with psychogenic erectile dysfunction
[4] = at 10 μM, [125I]NDP-α-MSH displacement

Molecule	inhibition at 10 µM (cloned human MC4R; [4]) [%]	IC50 (cloned human MC4R) [µM]	Displacement Rate (%) (at 10 μM) (cloned human MC4R; [4])	also measured
MT-II				food intake (Rodents): reduced food intake; penile erections [1, 2]: intermittent non-painful penile erections; period of erections after dosing [1, 2]: 1 to 5 h; onset of transient erections [1, 3]: 50 to 180 min; responders with transient erections [1, 3]: 8
Cc1ccc(C)c(CN2CCCN(C(=O)[C@@H](N)Cc3ccc(OCc4ccccc4)cc3)CC2)c1 [Example 36]	71 to 90	> 3		
N[C@@H](Cc1ccc(OCc2ccccc2)cc1)C(=O)N1CCN(Cc2cc(O)ccc2[N+](=O)[O-])CC1 [Example 148]		> 3		inhibition at 10 µM (cloned human MC4R): 35 to 70%
N[C@@H](Cc1ccc(OCc2ccccc2)cc1)C(=O)N1CCN(C2CCN(Cc3ccccc3)CC2)CC1 [Example 155]	35 to 70	> 3		
SHU-9119				food intake (Rodents): reverses this effect and can induce hyperphagia
CC(c1ccccc1)N1CCN(C(=O)[C@@H](N)Cc2ccc(OCc3ccccc3)cc2)CC1 (stereo partly drawn) [Example 157]	35 to 70	> 3		
CCc1ccc(CN2CCCN(C(=O)[C@@H](N)Cc3ccc(OCc4ccccc4)cc3)CC2)s1 [Example 45]	35 to 70	> 3		
N[C@@H](Cc1ccc(OCc2ccccc2)cc1)C(=O)N1CCN(Cc2ccc3ccccc3c2)CC1 [Example 105]	71 to 90	< 1.5		
N[C@@H](Cc1ccc(OCc2ccccc2)cc1)C(=O)N1CCCN(CC2CCCCC2)CC1 [Example 53]	35 to 70	> 3		
O=C([C@H](Cc1ccc(OCc2ccccc2)cc1)NCc1ccccc1)N1CCN(Cc2cccc(Cl)c2Cl)CC1 [Example 170]	71 to 90	> 3		
CCc1ccc(CN2CCN(C(=O)[C@@H](N)Cc3ccc(OCc4ccccc4)cc3)CC2)cc1 [Example 135]	35 to 70	> 3		
N[C@@H](Cc1ccc(OCc2ccccc2)cc1)C(=O)N1CCN(Cc2cccc(OCc3ccccc3)c2)CC1 [Example 85]	91 to 100	< 1.5		
CCOc1ccccc1CN1CCN(C(=O)[C@@H](N)Cc2ccc(OCc3ccccc3)cc2)CC1 [Example 116]	71 to 90	1.5 to 3		

The next lines start with results.

inhibition at 10 µM (cloned human MC4R; [4]) [%]	IC50 (cloned human MC4R) [µM]	Displacement Rate (%) (at 10 μM) (cloned human MC4R; [4])	Molecule	also measured
	< 1.5	+++ (+++ = 91-100)	N[C@@H](Cc1ccc(OCCc2ccc(Cl)cc2Cl)cc1)C(=O)N1CCN(Cc2cccc(Cl)c2Cl)CC1 [Example 246]	
	1.5 to 3		N[C@@H](Cc1ccc(-c2cnc3ccccc3c2)cc1)C(=O)N1CCN(Cc2cccc(Cl)c2Cl)CC1 [Example 341]	inhibition at 10 µM (cloned human MC4R): 71 to 90%
91 to 100	1.5 to 3		N[C@@H](Cc1ccc(-c2ccccc2C(F)(F)F)cc1)C(=O)N1CCN(Cc2cccc(Cl)c2Cl)CC1 [Example 315]	
	> 3	++ (++ = 71-90)	COc1ccc(COc2ccc(C[C@H](N)C(=O)N3CCN(Cc4cccc(Cl)c4Cl)CC3)cc2)c(OC)c1 [Example 228]	
	< 1.5	+++ (+++ = 91-100)	N[C@@H](Cc1ccc(OCc2ccc(Br)cc2)cc1)C(=O)N1CCN(Cc2cccc(Cl)c2Cl)CC1 [Example 186]	
	1.5 to 3	+++ (+++ = 91-100)	N[C@@H](Cc1ccc(OCc2ccc([N+](=O)[O-])cc2)cc1)C(=O)N1CCN(Cc2cccc(Cl)c2Cl)CC1 [Example 223]	
	1.5 to 3	+++ (+++ = 91-100)	COc1cc(COc2ccc(C[C@H](N)C(=O)N3CCN(Cc4cccc(Cl)c4Cl)CC3)cc2)cc(OC)c1 [Example 194]	
	< 1.5	+++ (+++ = 91-100)	N[C@@H](Cc1ccc(OCCc2ccc(OCc3ccccc3)cc2)cc1)C(=O)N1CCN(Cc2cccc(Cl)c2Cl)CC1 [Example 251]	
	< 1.5	++ (++ = 71-90)	COc1ccc(CCCOc2ccc(C[C@H](N)C(=O)N3CCN(Cc4cccc(Cl)c4Cl)CC3)cc2)cc1OC [Example 265]	
91 to 100	< 1.5		N[C@@H](Cc1ccc(-c2ccc(Cl)c(Cl)c2)cc1)C(=O)N1CCN(Cc2cccc(Cl)c2Cl)CC1 [Example 294]	
91 to 100	1.5 to 3		N[C@@H](Cc1ccc(-c2c(Cl)cccc2Cl)cc1)C(=O)N1CCN(Cc2cccc(Cl)c2Cl)CC1 [Example 324]	
	< 1.5	+++ (+++ = 91-100)	CCN(CCOc1ccc(C[C@H](N)C(=O)N2CCN(Cc3cccc(Cl)c3Cl)CC2)cc1)c1cccc(C)c1 [Example 282]	
	> 3	+ (+ = 35-70)	CN(CCCOc1ccc(C[C@H](N)C(=O)N2CCN(Cc3cccc(Cl)c3Cl)CC2)cc1)Cc1ccccc1 [Example 287]	
	1.5 to 3	++ (++ = 71-90)	N[C@@H](Cc1ccc(OCc2c(Cl)cccc2Cl)cc1)C(=O)N1CCN(Cc2cccc(Cl)c2Cl)CC1 [Example 226]	
	1.5 to 3	++ (++ = 71-90)	CN(CCOc1ccc(C[C@H](N)C(=O)N2CCN(Cc3cccc(Cl)c3Cl)CC2)cc1)Cc1ccccc1 [Example 285]	
71 to 90	1.5 to 3		CC(=O)c1cccc(-c2ccc(C[C@H](N)C(=O)N3CCN(Cc4cccc(Cl)c4Cl)CC3)cc2)c1 [Example 328]	

From patent US6916812B2, “Alpha-aminoamide derivatives as melanocortin agonists” (Bristol-Myers Squibb Company, priority 2001, dated 2005)
